In PubChem BioAssay (NCI):
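96-well plates; 48 h exposure; 5 concentrations. Endpoints by linear interpolation between flanking doses. Not reached: highest tested concentration assigned. Abbreviation: GI50, concentration required for 50% inhibition of growth. TGI denotes the concentration required for complete inhibition of growth.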

Assays:
Assay in all cases: NCI-60 cell line screen, 48 h
[1] = tested on: PC-3 prostate
[2] = tested on: LOX IMVI melanoma
[3] = tested on: COLO 205 colon
[4] = tested on: HCC-2998 colon
[5] = tested on: 786-0 renal
[6] = tested on: SW-620 colon
[7] = tested on: OVCAR-5 ovarian
[8] = tested on: M14 melanoma
[9] = tested on: BT-549 breast
[10] = tested on: UACC-257 melanoma
[11] = tested on: OVCAR-3 ovarian
[12] = tested on: HCT-15 colon
[13] = tested on: KM12 colon
[14] = tested on: MOLT-4 leukemia
[15] = tested on: HS 578T breast
[16] = tested on: SK-OV-3 ovarian
[17] = tested on: SR leukemia
[18] = tested on: UACC-62 melanoma
[19] = tested on: T-47D breast
[20] = tested on: NCI-H226 lung
[21] = tested on: SNB-75 CNS
[22] = tested on: A549 NSCLC
[23] = tested on: NCI-H460 lung
[24] = tested on: SK-MEL-5 melanoma
[25] = tested on: A498 renal
[26] = tested on: HCT-116 colon
[27] = tested on: IGROV1 ovarian
[28] = tested on: OVCAR-4 ovarian
[29] = tested on: HOP-62 NSCLC
[30] = tested on: OVCAR-8 ovarian
[31] = tested on: CCRF-CEM leukemia
[32] = tested on: TK-10 renal
[33] = tested on: UO-31 renal
[34] = tested on: SF-295 CNS
[35] = tested on: SK-MEL-28 melanoma
[36] = tested on: U251 CNS
[37] = tested on: RPMI-8226 leukemia
[38] = tested on: HT29 colon
[39] = tested on: MDA-MB-231 breast
[40] = tested on: K-562 leukemia
[41] = tested on: NCI-H23 lung
[42] = tested on: MCF7 breast
[43] = tested on: MALME-3M melanoma
[44] = tested on: SNB-19 CNS
[45] = tested on: EKVX NSCLC
[46] = tested on: DU-145 prostate
[47] = tested on: HL-60(TB) leukemia
[48] = tested on: CAKI-1 renal
[49] = tested on: SN12C renal
[50] = tested on: RXF 393 renal
[51] = tested on: ACHN renal
[52] = tested on: MDA-MB-435
[53] = tested on: SK-MEL-2 melanoma
[54] = tested on: SF-539 CNS
[55] = tested on: SF-268 CNS
[56] = tested on: NCI/ADR-RES ovarian
[57] = tested on: HOP-92 NSCLC

## CCN(CC)CCn1c2ccc(O)cc2c2sc3cc(OC)ccc3c(=O)c21
[1]
  GI50: 1.82 µM
  TGI: 5.09 µM
[2]
  GI50: 1.21 µM
  TGI: 2.59 µM
[3]
  GI50: 3.08 µM
  TGI: 17.9 µM
[4]
  GI50: 1.47 µM
  TGI: 2.91 µM
[5]
  GI50: 1.39 µM
  TGI: 2.79 µM
[6]
  GI50: 0.675 µM
  TGI: 2.11 µM
[7]
  GI50: 2.22 µM
  TGI: 4.68 µM
[8]
  GI50: 1.64 µM
  TGI: 3.31 µM
[9]
  GI50: 6.09 µM
  TGI: 19.9 µM
[10]
  GI50: 2.1 µM
  TGI: 4.68 µM
[11]
  GI50: 2.19 µM
  TGI: 4.88 µM
[12]
  GI50: 1.2 µM
  TGI: 3.28 µM
[13]
  GI50: 1.84 µM
  TGI: 3.72 µM
[14]
  GI50: 0.389 µM
  TGI: 1.71 µM
[15]
  GI50: 1.95 µM
  TGI: 4.59 µM
[16]
  GI50: 13.4 µM
  TGI: 27.2 µM
[17]
  GI50: 1.11 µM
  TGI: 3.15 µM
[18]
  GI50: 1.89 µM
  TGI: 4.26 µM
[19]
  GI50: 14.2 µM
  TGI: 37.9 µM
[20]
  GI50: 10.4 µM
  TGI: 24.2 µM
[21]
  GI50: 2.39 µM
  TGI: 17.4 µM
[22]
  GI50: 1.63 µM
  TGI: 4.3 µM
[23]
  GI50: 1.22 µM
  TGI: 2.66 µM
[24]
  GI50: 1.74 µM
  TGI: 3.14 µM
[25]
  GI50: 3.08 µM
  TGI: 16.5 µM
[26]
  GI50: 1.07 µM
  TGI: 2.38 µM
[27]
  GI50: 1.59 µM
  TGI: 4.52 µM
[28]
  GI50: 1.81 µM
  TGI: 4.04 µM
[29]
  GI50: 6.03 µM
  TGI: 23.7 µM
[30]
  GI50: 2.1 µM
  TGI: 7.26 µM
[31]
  GI50: 1.09 µM
  TGI: 4.5 µM
[32]
  GI50: 9.04 µM
  TGI: 24.7 µM
[33]
  GI50: 1.9 µM
  TGI: 11.5 µM
[34]
  GI50: 5.35 µM
  TGI: 18.8 µM
[35]
  GI50: 1.8 µM
  TGI: 3.29 µM
[36]
  GI50: 1.58 µM
  TGI: 3.34 µM
[37]
  GI50: 1.95 µM
  TGI: 4.88 µM
[38]
  GI50: 1.75 µM
  TGI: 4.29 µM
[39]
  GI50: 1.61 µM
  TGI: 3.71 µM
[40]
  GI50: 1.24 µM
  TGI: 2.81 µM
[41]
  GI50: 1.56 µM
  TGI: 3.18 µM
[42]
  GI50: 1.18 µM
  TGI: 2.79 µM
[43]
  GI50: 1.87 µM
  TGI: 4.01 µM
[44]
  GI50: 1.51 µM
  TGI: 3.41 µM
[45]
  GI50: 1.67 µM
  TGI: 3.5 µM
[46]
  GI50: 1.71 µM
  TGI: 3.51 µM
[47]
  GI50: 1.72 µM
  TGI: 3.55 µM
[48]
  GI50: 3.73 µM
  TGI: 17 µM
[49]
  GI50: 5.83 µM
  TGI: 21.2 µM
[50]
  GI50: 1.3 µM
  TGI: 2.68 µM
[51]
  GI50: 1.13 µM
  TGI: 2.44 µM
[52]
  GI50: 1.64 µM
  TGI: 3.1 µM
[53]
  GI50: 9.15 µM
  TGI: 25.1 µM
[54]
  GI50: 1.76 µM
  TGI: 3.2 µM
[55]
  GI50: 7.34 µM
  TGI: 24.5 µM
[56]
  GI50: 1.23 µM
  TGI: 4.01 µM
[57]
  GI50: 2.58 µM
  TGI: 17 µM
